Assay results as given in US20020183384A1, “Methods of treating nuclear factor-kappa B mediated diseases and disorders” (priority 2001, published 2002).

System: NF-κB mediated transcription
Assay: NF-κB driven β-lactamase reporter assay in ECV-304 NF-κB.βlaZ cells (AURORA CCF2 fluorescence)
Type: cell-based, human
Conditions: 10 μM compound; ECV-304 NF-κB.βlaZ cells stimulated with 10 ng/mL TNF-α or 100 pg/mL IL-1β, 6 hours at 37° C.; inhibition of maximum blue/green ratio
Excerpt: Introduction: Described below is an in vitro, cell-based, high throughput screening assay that reliably identifies inhibitors of NF-κB mediated transcription.
The assay takes advantage of AURORA (Aurora Bioscience Corporation, La Jolla, Calif.) fluorescence technology. Endothelial cell vein-304 (ECV-304) cells, an endothelial-like immortalized cell type, may be stably transfected with a plasmid vector containing the cDNA for the enzyme β-lactamase (under the control of a basal promoter, Stratagene pNFκB-luc vector) and 5 copies of an human immunodeficiency virus-1 (HIV-1) NF-κB binding site. ECV-304 cells are described by Takahashi K. et al. in Spontaneous Transformation and Immobilization of Human Endothelial Cells, In Vitro Cell. Dev. Biol. 1990;25:265-274. Activation of NF-κB in ECV-304 by cytokines such as TNF-α or interleuken-1 beta (IL-1β) results in the production of β-lactamase, which cleaves a green fluorescent substrate (excitation/emission wavelengths 395 nm1530 nm) to yield a blue fluorescent product (excitation/emission wavelengths 395 nm/460 nm). Visually, the uncleaved green fluorescent substrate is sequestered intracellularly and emits green fluorescence, while the cleaved product emits blue fluorescence. Fluorescence is quantitated spectrophotometrically, and the spectral intensity of blue fluorescence versus green fluorescence can be used to calculate the degree of activation of NF-κB.
The assay was performed as outlined here and described in detail below. ECV-304 cells permanently transfected with the NF-κB driven β-lactamase gene (ECV-304 NF-κB.βlaZ) were plated in clear-bottom, black 96-well plates (1.25×10^4 cells/well) in media-199 (M-199) media containing 2% fetal bovine serum (FBS). […] The AURORA fluorescent disclosing reagent was then added. After one additional hour, the plates were read in a fluorometer at the blue 395 nm/460 nm (excitation/emission) and green 395 nm/530 nm wavelengths. Then the blue/green emission ratio was calculated. […] An IC50 for said sulfonylaminocarbonyl derivative was determined from a dose-response curve. This assay was designed to be optionally run in either high or low throughput screening modes.
Five copies of the HIV-1 NF-κB binding site (5′-[…]-3′) along with a TATA box were inserted into the EcorRI/BamHI sites of plasmid pMCRBlaZ to create plasmid p5×KBBlaZ, which procedure is illustrated in Scheme 1 below. [formula]
Cells were selected for antibiotic resistance with Zeocin for approximately 2 weeks. After the stable population had been expanded to a significant number of cells, it was stimulated with IL-1β and stained with AURORA CCF2 dye, a membrane permeant, intracellularly-trapped, fluorescent substrate. Cells that fluoresced blue (indicating a positive response of the NF-κB/β-lactamase reporter to stimulation by IL-1β) in the stimulated/stained population were then sorted by flow cytometry into a pool. The pool was expanded and stained with CCF2, and then the cells that fluoresced green from this unstimulated population (indicating a low background of the NF-κB/β-lactamase reporter construct) were cloned by flow cytometry after adding 1 cell per well in 96-well plates. Clones were allowed to expand. Each cloned cell line was then examined for fold stimulation after stimulation with IL-1β using a CCF2 reporter assay, and these stimulated cells were compared to unstimulated cells.
Cells: ECV-304 NF-κB β-Lactamase clone 1E8
Inhibitors: Prepared stock solutions of aminosulfonyl derivatives at 10 mM concentration in DMSO;
c) Added 10 μL of B into appropriate well in assay plate (the final concentration of drug is 10 μM), and […]

Question: Which “Percent Inhibition at 10 μM” value does the source give for “[2-(2,4,6-Triisopropyl-phenyl)-acetyl]-sulfamic acid 4-(benzylamino-methyl)-2,6-diisopropyl-phenyl ester; compound with generic inorganic neutral component [Example 229]” here?
Answer: 75.79%

Question: For `CC(C)c1cccc(C(C)C)c1OS(=O)(=O)NC(=O)OCC(COC(=O)NS(=O)(=O)Oc1c(C(C)C)cccc1C(C)C)OC(=O)NS(=O)(=O)Oc1c(C(C)C)cccc1C(C)C` [Example 112, Carbamic acid, [[2,6-bis(1-methylethyl)phenoxy]sulfonyl]-, 1,2,3-propanetriyl ester], which “Percent Inhibition at 10 μM” value is on record?
Answer: <10%

Question: `CC(C)c1cc(C(C)C)c(OS(=O)(=O)NC(=O)Oc2c(C(C)(C)C)cc(C(C)(C)C)cc2C(C)(C)C)c(C(C)C)c1` [Example 127, Carbamic acid, [[2,4,6-bis(1-methylethyl)phenoxy]sulfonyl]-, 2,4,6-tris(1,1-dimethylethyl)phenyl ester] was tested. Which “Percent Inhibition at 10 μM” value did it give?
Answer: 74.01%

Question: For `CC1(C)OCC(NC(=O)NS(=O)(=O)NC2COC(C)(C)OC2c2ccccc2)C(c2ccccc2)O1` (single isomer, unassigned) [Example 105, Urea, N-(2,2-dimethyl-4-phenyl-1,3-dioxan-5-yl)-N′-[[(2,2-dimethyl-4-phenyl-1,3-dioxan-5-yl)amino]sulfonyl]-, stereoisomer], which “Percent Inhibition at 10 μM” value is on record?
Answer: <10%

Same assay, conditions: Homo sapiens, ECV-304, 6 h, 10 μM compound; ECV-304 NF-κB.βlaZ cells stimulated with 10 ng/mL TNF-α or 100 pg/mL IL-1β, 6 hours at 37° C.; inhibition of maximum blue/green ratio; read-out: Percent Inhibition at 10 μM

Question: `COc1cc(OC)c(OS(=O)(=O)NC(=O)Cc2c(C(C)C)cc(C(C)C)cc2C(C)C)c(OC)c1` [Example 189, [(2,4,6-Triisopropyl-phenyl)-acetyl]-sulfamic acid 2,4,6-trimethoxy-phenyl ester] was tested. Which inhibition at 10 µM did it give?
Answer: 15.1%

Question: `CCN(CC)S(=O)(=O)NC(=O)Nc1c(C(C)C)cccc1C(C)C` [Example 44, Urea, N-[2,6-bis(1-methylethyl)phenyl]-N′-[(diethylamino)sulfonyl]-] was tested. Which inhibition at 10 µM did it give?
Answer: < 10%

Question: Which inhibition at 10 µM does the source give for `CSCC[C@H](N)C(=O)Nc1cc(C(C)C)c(OS(=O)(=O)NC(=O)Cc2c(C(C)C)cc(C(C)C)cc2C(C)C)c(C(C)C)c1` [Example 201, [2-(2,4,6-Triisopropyl-phenyl)-acetyl]-sulfamic acid 4-((S)-2-amino-4-methylsulfanyl-butyrylamino)-2,6-diisopropyl-phenyl ester] here?
Answer: 87.1%

Question: `CC(C)c1cccc(C(C)C)c1OS(=O)(=O)NC(=O)C(C)(c1ccccc1)c1ccccc1` [Example 171, (2,2-Diphenyl-propionyl)-sulfamic acid 2,6-diisopropyl-phenyl ester] was tested. Which inhibition at 10 µM did it give?
Answer: 62.2%

Same assay, conditions: Homo sapiens; 10 μM compound; ECV-304 NF-κB.βlaZ cells stimulated with 10 ng/mL TNF-α or 100 pg/mL IL-1β, 6 hours at 37° C.; inhibition of maximum blue/green ratio; read-out: Percent Inhibition at 10 μM

Question: For `CCCCCN(CCCCC)S(=O)(=O)NC(=O)Oc1c(C(C)(C)C)cc(C)cc1C(C)(C)C` [Example 31, Carbamic acid, [(dipentylamino)sulfonyl]-, 2,6-bis(1,1-dimethylethyl)-4-methylphenyl ester], which inhibition at 10 µM is on record?
Answer: 74%

Question: With `CC(C)c1cccc(C(C)C)c1OC(=O)NS(=O)(=O)Oc1c(F)cccc1F` [Example 103, Carbamic acid, [(2,6-difluorophenoxy)sulfonyl]-, 2,6-bis(1-methylethyl)-phenyl ester] as the compound, how does the inhibition at 10 µM read?
Answer: < 10%

Question: Which inhibition at 10 µM does the source give for `CC(C)c1ccc(OC(=O)NS(=O)(=O)Oc2c(C(C)C)cccc2C(C)C)c(C(C)C)c1` [Example 129, Carbamic acid, [[2,6-bis(1-methylethyl)phenoxy]sulfonyl]-, 2,4-bis(1-methylethyl)phenyl ester] here?
Answer: < 10%

Question: With `COc1cccc(OC)c1OC(=O)NS(=O)(=O)Oc1c(C(C)C)cccc1C(C)C` [Example 108, Carbamic acid, [[2,6-bis(1-methylethyl)phenoxy]sulfonyl]-, 2,6-dimethoxyphenyl ester] as the compound, how does the inhibition at 10 µM read?
Answer: < 10%

Question: For `CCCCCCCCCCN(CCCCCCCCCC)S(=O)(=O)NC(=O)Oc1c(C(C)(C)C)cc(C)cc1C(C)(C)C` [Example 52, Carbamic acid, [(didecylamino)sulfonyl]-, 2,6-bis(1,1-dimethylethyl)-4-methylphenyl ester], which inhibition at 10 µM is on record?
Answer: < 10%

Question: For `CCCCN(CCCC)S(=O)(=O)NC(=O)Oc1c(C(C)C)cccc1C(C)C` [Example 27, Carbamic acid, [(dibutylamino)sulfonyl]-, 2,6-bis(1-methylethyl)phenyl ester], which inhibition at 10 µM is on record?
Answer: 26.1%
